{
  "source": "patent US10639301B2",
  "about": "(Commissariat a L'Energie Atomique et Aux Energies …, priority 2013, dated 2020)",
  "key": {"Cx32": {"target": "T1, Cx32 (Homo sapiens, UniProt P08034)", "T1 construct": "expressed in transfected cells; host or cells: rat insulinoma RIN cell line (Rin-Cx32), pcDNA3.1/V5-His-TOPO, geneticin-selected", "T1 sequence (P08034 whole entry)": "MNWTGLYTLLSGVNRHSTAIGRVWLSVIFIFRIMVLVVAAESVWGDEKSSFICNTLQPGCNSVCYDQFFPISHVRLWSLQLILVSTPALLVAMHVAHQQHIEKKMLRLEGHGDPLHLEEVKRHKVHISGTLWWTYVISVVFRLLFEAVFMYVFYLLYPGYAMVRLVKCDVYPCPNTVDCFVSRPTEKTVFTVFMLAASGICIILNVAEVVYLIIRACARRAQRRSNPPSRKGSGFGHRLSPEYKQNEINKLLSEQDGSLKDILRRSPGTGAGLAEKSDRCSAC", "assay": "Dye transfer (cell-parachute) gap junction assay, Rin-Cx32 cells", "assay_type": "cell-based", "settings": "flecainide racemate 70, 140 or 280 μM, 4 hours, flow cytometry", "method": "(§1) The rat insulinoma RIN cell line, deficient in GJIC (del Corsso et al, 2006), was grown in OptiMem medium, supplemented with 10% fetal calf serum. GJB6 (Cx30), GJB1 (Cx32), GJB2 (Cx26), GJA5 (Cx40) and GJA1 (Cx43) open reading frames were amplified from human cDNA. The open reading frames were cloned in pcDNA3.1/V5-His-TOPO (Invitrogen). Cells were transfected using Lipofectamine and further selected using geneticin.\n(§2) Cells were seeded and loaded with two fluorochromes, calcein acetoxymethyl ester, a gap junction permeable dye, and Vybrant Dil, a membrane lipophilic dye. […] Flow cytometry was conducted on a FACScan. Inhibition was quantified as the relative number of receiver cells that gained fluorescence to the total number of receiver cells (non GJ-mediated dye transfer was then substracted to these ratio based on connexin non-expressing RIN cells, defined at background dye transfer ratio). This ratio of cellular coupling was then normalized, after each treatment, on the vehicle one."}, "narcoleptic Ox-/- mice [1]": {"tested_on": "narcoleptic Ox-/- mice", "assay": "DREM cataplectic-like episodes in narcoleptic orexin knockout mice", "assay_type": "in vivo", "settings": "oral"}, "Cx40": {"target": "T2, Cx40 (Homo sapiens, UniProt P36382)", "T2 construct": "expressed in transfected cells; host or cells: rat insulinoma RIN cell line (Rin-Cx40), pcDNA3.1/V5-His-TOPO, geneticin-selected", "T2 sequence (P36382 whole entry)": "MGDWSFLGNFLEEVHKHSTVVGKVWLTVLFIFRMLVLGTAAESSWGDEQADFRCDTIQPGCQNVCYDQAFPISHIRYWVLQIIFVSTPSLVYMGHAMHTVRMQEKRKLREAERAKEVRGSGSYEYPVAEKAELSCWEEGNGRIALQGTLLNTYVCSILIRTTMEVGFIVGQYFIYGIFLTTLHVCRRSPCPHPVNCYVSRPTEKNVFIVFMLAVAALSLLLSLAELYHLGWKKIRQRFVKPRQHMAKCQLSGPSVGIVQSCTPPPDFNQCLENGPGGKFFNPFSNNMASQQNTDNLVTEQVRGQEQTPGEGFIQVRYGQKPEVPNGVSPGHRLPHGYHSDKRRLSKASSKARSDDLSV", "assay": "Dye transfer (cell-parachute) gap junction assay, Rin-Cx40 cells", "assay_type": "cell-based", "settings": "flecainide racemate 70, 140 or 280 μM, 4 hours, flow cytometry", "method": "as §1, §2"}, "[2]": {"tested_on": "Wild-type C57bl/6 male mice", "assay": "Wake duration by polysomnographic analysis", "assay_type": "in vivo", "settings": "oral", "source_text": "Wild-type C57bl/6 male mice (n=9/groups) were implanted with EEG/EMG/EOG electrodes for polysomnographic analyses. […] Here the inventors represented the duration of wake during the first three hours (after a one-hour period post-administration). **: p<0.01 in a One-Way ANOVA analysis."}, "mice [3]": {"tested_on": "mice", "assay": "Locomotor activity by video tracking", "assay_type": "in vivo", "settings": "oral", "method": "Locomotor activity is evaluated by video tracking. Videos have been analyzed using Ethovision XT software (Noldus®).*: p<0.01 in a Two-Way ANOVA analysis"}, "RIN cells": {"tested_on": "RIN cells", "assay": "Toxicity analysis, cell viability by WST-1", "assay_type": "cell-based, rat", "settings": "RIN cells treated 4 hours, grown 24 h; at the dose inhibiting cerebral connexins", "method": "Twenty thousand RIN were seeded in 100 μl of culture medium in 96-wells plates. After 48 h culture, cells were treated for 4 hours with previously identified chemical compounds at several concentrations. Cells were rinsed in PBS and grown 24 h in fresh medium. Cell viability was measured by using WST-1 (Roche)."}, "Cx30": {"target": "T3, Cx30 (Homo sapiens, UniProt O95452)", "T3 construct": "expressed in transfected cells; host or cells: rat insulinoma RIN cell line (Rin-Cx30), pcDNA3.1/V5-His-TOPO, geneticin-selected", "T3 sequence (O95452 whole entry)": "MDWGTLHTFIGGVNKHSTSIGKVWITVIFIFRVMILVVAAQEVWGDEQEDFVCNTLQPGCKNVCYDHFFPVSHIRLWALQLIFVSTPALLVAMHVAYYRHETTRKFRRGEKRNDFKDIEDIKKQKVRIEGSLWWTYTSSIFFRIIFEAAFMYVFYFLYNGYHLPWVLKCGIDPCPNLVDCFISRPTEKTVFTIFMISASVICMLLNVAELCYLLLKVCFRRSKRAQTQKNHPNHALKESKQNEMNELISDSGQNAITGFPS", "assay": "Dye transfer (cell-parachute) gap junction assay, Rin-Cx30 cells", "assay_type": "cell-based", "settings": "flecainide racemate 70, 140 or 280 μM, 4 hours, flow cytometry", "method": "as §1, §2"}, "Cx43": {"target": "T4, Cx43 (Homo sapiens, UniProt P17302)", "T4 construct": "expressed in transfected cells; host or cells: rat insulinoma RIN cell line (Rin-Cx43), pcDNA3.1/V5-His-TOPO, geneticin-selected", "T4 sequence (P17302 2-382 limits assumed)": "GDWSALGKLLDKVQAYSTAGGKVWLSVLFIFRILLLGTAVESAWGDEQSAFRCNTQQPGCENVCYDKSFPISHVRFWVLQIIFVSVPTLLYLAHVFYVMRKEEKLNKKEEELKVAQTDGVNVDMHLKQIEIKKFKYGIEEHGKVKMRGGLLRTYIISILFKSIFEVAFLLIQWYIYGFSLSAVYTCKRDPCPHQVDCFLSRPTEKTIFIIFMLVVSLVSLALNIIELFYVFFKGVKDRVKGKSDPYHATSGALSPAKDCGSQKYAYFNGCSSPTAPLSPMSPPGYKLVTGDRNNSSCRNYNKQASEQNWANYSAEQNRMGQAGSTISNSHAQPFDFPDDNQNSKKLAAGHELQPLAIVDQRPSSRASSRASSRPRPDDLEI", "assay": "Dye transfer (cell-parachute) gap junction assay, Rin-Cx43 cells", "assay_type": "cell-based", "settings": "flecainide racemate 70, 140 or 280 μM, 4 hours, flow cytometry", "method": "as §1, §2"}, "[4]": {"tested_on": "cardiac myocyte cell pairs", "settings": "cardiac myocyte cell pairs (Daleau et al, 1998); cited from earlier work"}, "Cx26": {"target": "T5, Cx26 (Homo sapiens, UniProt P29033)", "T5 construct": "expressed in transfected cells; host or cells: rat insulinoma RIN cell line (Rin-Cx26), pcDNA3.1/V5-His-TOPO, geneticin-selected", "assay": "Dye transfer (cell-parachute) gap junction assay, Rin-Cx26 cells", "assay_type": "cell-based", "settings": "flecainide racemate 70, 140 or 280 μM, 4 hours, flow cytometry", "method": "as §1, §2"}, "mice [5]": {"tested_on": "mice", "assay": "T-maze alternating sequential test (spatial working memory)", "assay_type": "in vivo", "settings": "intraperitoneal", "source_text": "The alternating sequential test is widely used to assess spatial working memory in mice (Beracochea & Jaffard, 1987). Spontaneous alternation is the innate tendency of rodents to alternate their choices to entry into the compartments of arrival of a T-maze device, over successive trials. To alternate during a given trial N, the animal must remember the choice made selectively in test N−1, so the decline in alternating will reflect the phenomenon of oblivion. The response in alternating is performance measure. Sequential alternating assesses more specifically the sensitivity to interference, a major factor in oblivion.\nThe experiment takes place in a T-maze (50 cm×10 cm×25 cm). All the subjects were given 7 successive trials separated by a 120-s intertrial interval. To begin a trial, the mouse was placed in the start box for 120 s before the door to the stem was opened. When the subject entered one of the goal arms, the door to that arm was closed. The chosen arm and the time that elapsed between opening the door and the arrival to the end of the chosen arm (task achievement time) were registered. Following a 30-s confinement period (fixed and invariant) in the chosen arm, the animal was removed and placed in the start box for a new trial. Between each test, the unit is cleaned with a cloth soaked in water and alcohol to avoid olfactory detection. […]"}, "[6]": {"settings": "poor metabolizers (PM) of sparteine/debrisoquine, 50 mg racemic flecainide acetate (Gross et al, 1989); cited from earlier work"}, "narcoleptic Ox-/- mice [7]": {"tested_on": "narcoleptic Ox-/- mice", "settings": "orexin KO mouse model, literature; cited from earlier work"}, "[8]": {"settings": "flecainide racemate 1 mg/kg alone"}},
  "note": "Entries after “also recorded” stand apart in the source; their conditions may differ.",
  "data": [
    {"smiles": "O=C(NCC1CCCCN1)c1cc(OCC(F)(F)F)ccc1OCC(F)(F)F", "note": "(racemic) [flecainide, N-(piperidin-2-ylmethyl)-2,5-bis(2,2,2-trifluoroethoxy) benzamide]", "values": [
      {"measurement": "Inhibition of gap junction dye transfer (cellular coupling)", "setting": "Cx32", "result": "inhibits all the tested isoforms"},
      {"measurement": "DREM cataplectic-like phenotype, flecainide alone", "setting": "narcoleptic Ox-/- mice [1]; [8]", "result": "no effect"},
      {"measurement": "Inhibition of gap junction dye transfer (cellular coupling)", "setting": "Cx40", "result": "inhibits all the tested isoforms"},
      {"measurement": "Wake duration, flecainide alone", "setting": "[2]; flecainide 1 mg/kg alone", "result": "devoid of own effect on wake duration"},
      {"measurement": "Waking effect of modafinil (wake duration) with flecainide added", "setting": "[2]; modafinil 32 mg/kg + flecainide racemate 1 mg/kg, first three hours after one-hour period", "result": "significantly increases"},
      {"measurement": "Locomotor effect, flecainide alone", "setting": "mice [3]; [8]", "result": "devoid of any own locomotor effect"},
      {"measurement": "Duration of effect of modafinil on locomotor activity with flecainide added", "setting": "mice [3]; modafinil 64 mg/kg + flecainide 1 mg/kg", "result": "significantly increases the duration of effect of modafinil"},
      {"measurement": "Cell viability (WST-1)", "setting": "RIN cells", "result": "no cell toxicity"},
      {"measurement": "Inhibition of gap junction dye transfer (cellular coupling)", "setting": "Cx30", "result": "inhibits all the tested isoforms; also recorded: higher inhibition levels"},
      {"measurement": "Inhibition of gap junction dye transfer (cellular coupling)", "setting": "Cx43", "result": "inhibits all the tested isoforms; also recorded: higher inhibition levels"},
      {"measurement": "Influence on junctional resistance", "setting": "[4]", "result": "not to influence"},
      {"measurement": "Inhibition of gap junction dye transfer (cellular coupling)", "setting": "Cx26", "result": "inhibits all the tested isoforms; also recorded: higher inhibition levels"},
      {"measurement": "Cognitive (promnesiant) effect, flecainide alone", "setting": "mice [5]; [8]", "result": "no own cognitive effect"},
      {"measurement": "Promnesiant activity of modafinil (percentage of alternation) with flecainide added", "setting": "mice [5]; modafinil 64 mg/kg + flecainide racemate 1 mg/kg", "result": "significantly potentiates"}
    ]},
    {"smiles": "O=C(NC[C@H]1CCCCN1)c1cc(OCC(F)(F)F)ccc1OCC(F)(F)F", "note": "[R-flecainide, (R)—N-(piperidin-2-ylmethyl)-2,5-bis(2,2,2-trifluoroethoxy)benzamide]", "values": [
      {"measurement": "half-life", "setting": "[6]", "result": 12.9, "unit": "h"},
      {"measurement": "urinary recovery", "setting": "[6]", "result": "15.6 ± 3.7", "unit": "mg"},
      {"measurement": "DREM cataplectic-like phenotype, flecainide enantiomer combined with modafinil", "setting": "narcoleptic Ox-/- mice [1]; modafinil 64 mg/kg + enantiomer 1 mg/kg, R- compared with S-flecainide", "result": "more efficient"}
    ]},
    {"smiles": "O=C(NC[C@@H]1CCCCN1)c1cc(OCC(F)(F)F)ccc1OCC(F)(F)F", "note": "[S-flecainide, (S)—N-(piperidin-2-ylmethyl)-2,5-bis(2,2,2-trifluoroethoxy)benzamide]", "values": [
      {"measurement": "half-life", "setting": "[6]", "result": 9.8, "unit": "h"},
      {"measurement": "urinary recovery", "setting": "[6]", "result": "12.0 ± 3.7", "unit": "mg"}
    ]},
    {"smiles": "NC(=O)C[S+]([O-])C(c1ccccc1)c1ccccc1", "note": "(stereo not drawn) [modafinil, 2-[(diphenylmethyl)sulfinyl] acetamide]", "values": [
      {"measurement": "DREM cataplectic-like phenotype, modafinil alone", "setting": "narcoleptic Ox-/- mice [1]; modafinil 64 mg/kg alone", "result": "do not have any significant effect"},
      {"measurement": "DREM episodes under modafinil (Lin et al, 2008)", "setting": "narcoleptic Ox-/- mice [7]", "result": "allows DREM episodes to persist"}
    ]}
  ]
}
